This assay has as its system 415267-285-R-J2-PDC complex spheroid viability. Nature of the assay: Anticancer human tumor 415267-285-R-J2-PDC patient-derived breast carcinoma cell line growth inhibition [POLQ]. Conditions: for viability, T/C: stronger effect = lower value; for pIC50: curve of compound. Here is the method: Multicellular complex tumor spheroid response to Polymerase (POL) inhibitors (novobiocin, ART-558, RP6685) in combination with a variety of drugs and investigational agents in selected tumor cell lines
The POL inhibitors (novobiocin, ART-558, and RP6685) were evaluated both individually and in combination with standard of care and investigational anticancer small molecules within a complex spheroid model of solid tumors. . Complex spheroids include a stromal component modeled by human endothelial cells (HUVEC) and fibroblasts modeled by human mesenchymal stem cells (MSCs). The concentration ranges selected for each drug and investigational agent were based upon clinically achievable concentrations if the clinical Cmax of the agent was known.
Compounds. The drugs and investigational agents: novobiocin (NSC847541), ART-558 (NSC835418), RP-6685 (NSC848927), peposertib (NSC802822), ceralasertib (NSC780249), elimusertib (NSC800525), camonsertib (NSC841442), AZD-1390 (NSC803789), olaparib (NSC753686), talazoparib (NSC767125), rucaparib (NSC756644), sotorasib (NSC818433), MRTX-1133 (NSC836407), SN-38 (NSC673596), topotecan (NSC609699), epotoside (NSC141540), doxorubicin (NSC123127), gemcitabine (NSC613327), 5-fluorouracil (NSC19893), paclitaxel (NSC125973), vemurafenib (NSC761431), MSA-2 (NSC828583), SN-011 (NSC837082), adavosertib (NSC754352), prexasertib (NSC758257), carboplatin (NSC241240) and oxaliplatin (NSC266046), were obtained from the National Cancer Institute (NCI) Developmental Therapeutics Program Chemical Repository (21). The FDA-approved anticancer drug set is available from the Developmental Therapeutics Program at https://dtp.cancer.gov/organization/dscb/obtaining/. […] The stock solutions were prepared in dimethyl sulfoxide (DMSO, Sigma-Aldrich, St. Louis, MO, cat. D2650), except for the platinum compounds which were prepared in saline (Quality Biological, Gaithersburg, MD, cat. 114-055-101), at 800-fold the tested concentration and stored at -70 degrees C prior to their use. All drugs and investigational agents were tested over a range starting from a high concentration at or near the clinical Cmax and decreasing in half-log increments. If the clinical Cmax for an agent had not been determined, the highest concentration tested was 10 microM, except for SN-38, which was tested at a high concentration of 1 microM.
Cell Culture. All cells were maintained in an incubator at 37 degrees C and 5% CO2 with 95% humidity. The PDC lines were cultured according to standard operating procedures established by the NCI PDMR (https://pdmr.cancer.gov). Table 3 of the manuscript, lists the cell lines along with the number of the three cell types plated to form the mct-spheroids and media for tumor cell growth. After thawing, all PDC lines, except 997537-175-T-J1-PDC and 415267-285-R-J2-PDC, were cultured in Matrigel-coated flasks prepared with a working solution of 1X Ham's F-12 nutrient mix, without supplementation (Thermo Fisher Scientific, cat. 11765054), 100 U/mL penicillin-streptomycin (Thermo Fisher Scientific, cat. 15140122), and 2.5% Matrigel (Corning Inc., Corning, NY, cat. 354248) for the first three passages. The two PDC lines 997537-175-T-J1-PDC and 415267-285-R-J2-PDC were cultured on uncoated flasks. The 857933-349-R-J2-PDC line was cultured in 6C/Colon 1B media containing advanced DMEM/F-12 (Thermo Fisher Scientific, cat. 12634028), 10 mM HEPES (Thermo Fisher Scientific, cat. 15630080), 1X GlutaMAX supplement (Thermo Fisher Scientific, cat. 35050061), 0.1 mg/mL primocin (InvivoGen, San Diego, CA, cat. ant-pm-2), 10% defined fetal bovine serum, heat inactivated (HyClone Laboratories Inc., Logan, UT, cat. SH30070.03HI), 50% L-WRN conditioned media (ATCC, cat. CRL-3276), 1.25 mM N-Acetyl-L-cysteine (Sigma-Aldrich, cat. A9165), 10 mM nicotinamide (Sigma-Aldrich, cat. N0636), 1X B-27 supplement (Thermo Fisher Scientific, cat. 17504044), 1X N-2 supplement (Thermo Fisher Scientific, cat. […]

pIC50: −log10 of the molar value. Where “and” joins values, the source holds several entries; their conditions need not be identical. Equal values may be shown once.

What is called viability, T/C is the ratio of treated to control. In general, pIC50 refers to the negative decadic logarithm of the IC50, by convention in mol/L.
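Also: spheroids exposed to compounds for one week before readout.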
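For viability, T/C in this document: luminescence used as stand-in measure of viable cells.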

Consider `C=CCn1c(=O)c2cnc(Nc3ccc(N4CCN(C)CC4)cc3)nc2n1-c1cccc(C(C)(C)O)n1`, for which the pIC50 was 6.53 and 6.33 and 6.35. Moreover, the viability, T/C (compound 0.00316 µM) is 93.5% and 109% and 105%. For the same molecule, where the note is “compound 0.01 µM”, the viability, T/C is 94% and 116% and 97.7%. Besides, the viability, T/C (compound 0.0316 µM) is 106% and 108% and 97.9%. Moreover, the viability, T/C (compound 0.1 µM) is 99.5% and 96.9% and 95.5%. Besides, the viability, T/C (compound 0.316 µM) was 46.4% and 73.5% and 68.8%. Also, where the note is “compound 1 µM”, the viability, T/C was 7.6% and 7.2% and 5.6%.
As for `CC(=O)O[C@H]1C(=O)[C@@]2(C)[C@H]([C@H](OC(=O)c3ccccc3)[C@]3(O)C[C@H](OC(=O)[C@H](O)[C@@H](NC(=O)c4ccccc4)c4ccccc4)C(C)=C1C3(C)C)[C@]1(OC(C)=O)CO[C@@H]1C[C@@H]2O`, the negative logarithm of the IC50 (pIC50) is greater than 8.02. Also, the viability, T/C (compound 0.00949 µM) was 16.9% and 25% and 13%. In addition, where the note is “compound 0.03 µM”, the viability, T/C is 9.1% and 9.98% and 8.84%. For the same molecule, the viability, T/C (compound 0.0949 µM) was 8.45% and 7.67% and 7.24%. Further, the viability, T/C (compound 0.3 µM) is 8.09% and 8.99% and 7.37%. For the same molecule, for the setting “compound 0.949 µM”, the viability, T/C was 6.85% and 7.15% and 7.58%. Further, the viability, T/C (compound 3 µM) was 7.67% and 7.6% and 8.18%.
On to `CC(C)n1c(=O)n(C)c2cnc3cc(F)c(-c4ccc(OCCCN5CCCCC5)nc4)cc3c21`, for which the negative logarithm of the IC50 (pIC50) was less than 5.00. Further, the viability, T/C (compound 0.0316 µM) was 92.3% and 106% and 90.9%. Moreover, the viability, T/C (compound 0.1 µM) was 97% and 105% and 101%. Further, the viability, T/C (compound 0.316 µM) was 102% and 115% and 91.9%. The viability, T/C (compound 1 µM) was 112% and 121% and 108%. For the setting “compound 3.16 µM”, the viability, T/C is 110% and 108% and 96.3%. The viability, T/C (compound 10 µM) is 83.6% and 103% and 97.1%.
As to `CC1COCCN1c1cc(-c2ccnn2C)c2ccnc(-c3ccn[nH]3)c2n1` (stereo not drawn), the pIC50 is > 7.50 and 7.40. The viability, T/C (compound 0.0316 µM) was 46.6% and 47.9% and 59.5%. Besides, the viability, T/C (compound 0.1 µM) is 10.6% and 13.9% and 11.1%. In addition, the viability, T/C (compound 0.316 µM) was 6.96% and 5.73% and 5.2%. For the same molecule, for the setting “compound 1 µM”, the viability, T/C was 5.32% and 5.61% and 4.36%. Besides, for the setting “compound 3.16 µM”, the viability, T/C was 4.68% and 4.28% and 3.7%. For the same molecule, the viability, T/C (compound 10 µM) was 4.66% and 4.53% and 3.78%.
For the molecule `CC1COCCN1c1cc(C2(S(C)(=N)=O)CC2)nc(-c2ccnc3[nH]ccc23)n1` (stereo not drawn), the pIC50 was 6.33 and 6.24 and 6.35. The viability, T/C (compound 0.0316 µM) is 96.2% and 107% and 97.5%. Moreover, under “compound 0.1 µM”, the viability, T/C was 93.1% and 103% and 94.9%. For the same molecule, under “compound 0.316 µM”, the viability, T/C was 69.9% and 86.8% and 66.4%. Besides, the viability, T/C (compound 1 µM) is 12.1% and 15.8% and 13%. The viability, T/C (compound 3.16 µM) was 7.35% and 7.07% and 7.38%. Where the note is “compound 10 µM”, the viability, T/C was 5.4% and 3.22% and 5.26%.
With `CCCS(=O)(=O)Nc1ccc(F)c(C(=O)c2c[nH]c3ncc(-c4ccc(Cl)cc4)cc23)c1F`, the pIC50 is less than 5.00. For the same molecule, the viability, T/C (compound 0.0316 µM) was 96.6% and 91.5% and 93.2%. Moreover, the viability, T/C (compound 0.1 µM) was 96.8% and 99.3% and 96.4%. Further, the viability, T/C (compound 0.316 µM) is 104% and 98% and 94.8%. Also, the viability, T/C (compound 1 µM) is 107% (2×) and 100%. Besides, the viability, T/C (compound 3.16 µM) is 88.1% and 98.2% and 98%. For the same molecule, under “compound 10 µM”, the viability, T/C is 86.5% and 87.4% and 72%.
In the case of `CC[C@@]1(O)C(=O)OCc2c1cc1n(c2=O)Cc2cc3c(CN(C)C)c(O)ccc3nc2-1`, the pIC50 was 7.69 and 7.60 and 7.71. For the setting “compound 0.000316 µM”, the viability, T/C is 95.8% and 95.3% and 99.4%. In addition, the viability, T/C (compound 0.001 µM) is 113% and 97% and 101%. Moreover, the viability, T/C (compound 0.00316 µM) is 103% and 108% and 98.3%. Also, the viability, T/C (compound 0.01 µM) is 90.7% and 108% and 86.8%. The viability, T/C (compound 0.0316 µM) is 25.3% and 37.5% and 22.8%. For the setting “compound 0.1 µM”, the viability, T/C is 7.48% and 7.95% and 7.34%.
On to `CCc1c2c(nc3ccc(O)cc13)-c1cc3c(c(=O)n1C2)COC(=O)[C@]3(O)CC`, for which the negative logarithm of the IC50 (pIC50) is > 8.50 and 8.41. The viability, T/C (compound 0.00316 µM) was 32.2% and 58.6% and 31.9%. Moreover, the viability, T/C (compound 0.01 µM) was 9.97% and 8.74% and 13.6%. Also, the viability, T/C (compound 0.0316 µM) is 5.41% and 4.4% and 6.58%. For the setting “compound 0.1 µM”, the viability, T/C was 4.94% and 2.95% and 3.9%. Besides, the viability, T/C (compound 0.316 µM) was 2.72% and 1.83% and 3.74%. Moreover, the viability, T/C (compound 1 µM) was 1.69% and 0.99% and 1.42%.
Take `CNCc1ccc(-c2[nH]c3cc(F)cc4c3c2CCNC4=O)cc1`: the negative logarithm of the IC50 (pIC50) was less than 5.00. The viability, T/C (compound 0.0316 µM) was 107% and 95.9% and 101%. In addition, where the note is “compound 0.1 µM”, the viability, T/C is 109% and 115% and 101%. The viability, T/C (compound 0.316 µM) is 96.2% and 94.8% and 102%. Further, the viability, T/C (compound 1 µM) was 94.9% and 105% and 102%. Further, the viability, T/C (compound 3.16 µM) is 108% and 96% and 106%. Also, the viability, T/C (compound 10 µM) is 103% and 98.2% and 107%.

These data come from PubChem BioAssay AID1963847 (Molecular Pharmacology Branch, DTP, NCI, 2024).
